In paper PMC3961306, “Comparison of the Cancer Gene Targeting and Biochemical Selectivities of All Targeted Kinase Inhibitors Approved for Clinical Use” (PLoS ONE, 2014):

Assays:
Assay in all cases: Kinase profiling in a biochemical assay panel (mobility shift assays and ELISA), %-inhibition at 1 μM; selectivity entropy
[1] = target: panel of more than 300 wild-type and mutant kinases (313 kinase panel) (Homo sapiens, UniProt Q13464)
[2] = target: T1, panel of more than 300 wild-type and mutant kinases (313 kinase panel) (Homo sapiens, UniProt P54762)
T1 sequence (P54762 18-984): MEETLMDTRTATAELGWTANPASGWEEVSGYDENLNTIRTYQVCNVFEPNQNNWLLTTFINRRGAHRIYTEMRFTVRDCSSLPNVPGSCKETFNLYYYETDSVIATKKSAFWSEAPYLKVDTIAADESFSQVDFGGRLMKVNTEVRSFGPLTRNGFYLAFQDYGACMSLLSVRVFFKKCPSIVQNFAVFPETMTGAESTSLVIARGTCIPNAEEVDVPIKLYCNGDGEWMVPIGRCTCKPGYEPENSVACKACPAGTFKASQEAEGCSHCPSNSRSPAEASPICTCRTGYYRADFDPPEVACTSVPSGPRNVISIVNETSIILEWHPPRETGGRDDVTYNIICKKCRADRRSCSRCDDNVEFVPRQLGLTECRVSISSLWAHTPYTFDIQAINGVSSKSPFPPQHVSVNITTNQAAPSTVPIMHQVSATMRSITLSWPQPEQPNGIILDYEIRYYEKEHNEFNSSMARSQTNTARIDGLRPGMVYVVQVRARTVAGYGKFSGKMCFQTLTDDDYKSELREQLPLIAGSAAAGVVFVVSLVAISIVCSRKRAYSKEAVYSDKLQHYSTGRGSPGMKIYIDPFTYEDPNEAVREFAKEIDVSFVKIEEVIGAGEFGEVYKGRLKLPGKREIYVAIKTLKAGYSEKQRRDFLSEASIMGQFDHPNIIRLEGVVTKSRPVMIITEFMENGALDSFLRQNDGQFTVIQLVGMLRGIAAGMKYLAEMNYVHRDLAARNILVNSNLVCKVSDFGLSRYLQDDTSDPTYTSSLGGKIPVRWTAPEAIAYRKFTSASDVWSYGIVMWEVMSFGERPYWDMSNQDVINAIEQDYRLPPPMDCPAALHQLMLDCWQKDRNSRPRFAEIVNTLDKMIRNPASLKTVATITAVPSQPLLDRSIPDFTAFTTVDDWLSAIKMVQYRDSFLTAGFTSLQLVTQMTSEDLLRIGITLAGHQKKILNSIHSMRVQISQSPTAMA

[3] = target: T2, panel of more than 300 wild-type and mutant kinases (313 kinase panel) (Homo sapiens, UniProt Q13163); conditions: kinase MAP2K5; compound at 1 μM
T2 sequence (Q13163 1-448): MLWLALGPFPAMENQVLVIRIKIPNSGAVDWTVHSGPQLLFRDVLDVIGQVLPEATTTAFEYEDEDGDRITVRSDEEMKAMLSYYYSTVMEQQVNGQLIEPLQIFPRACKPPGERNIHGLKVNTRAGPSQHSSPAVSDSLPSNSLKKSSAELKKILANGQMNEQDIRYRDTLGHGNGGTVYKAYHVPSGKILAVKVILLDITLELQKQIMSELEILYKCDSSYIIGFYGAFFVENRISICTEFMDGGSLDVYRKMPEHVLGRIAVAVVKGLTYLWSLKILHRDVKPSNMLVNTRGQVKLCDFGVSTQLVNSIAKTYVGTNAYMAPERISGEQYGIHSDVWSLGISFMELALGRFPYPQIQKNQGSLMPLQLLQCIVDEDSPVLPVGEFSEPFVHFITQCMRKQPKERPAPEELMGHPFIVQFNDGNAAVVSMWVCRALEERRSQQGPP

[4] = target: panel of more than 300 wild-type and mutant kinases (313 kinase panel) (Homo sapiens, UniProt P43405)
[5] = target: panel of more than 300 wild-type and mutant kinases (313 kinase panel) (Homo sapiens, UniProt P27361); conditions: kinase Erk1; compound at 1 μM
panel of more than 300 wild-type and mutant kinases (313 kinase panel) (Homo sapiens, UniProt P27361), sequence (P27361 whole entry, change not shown): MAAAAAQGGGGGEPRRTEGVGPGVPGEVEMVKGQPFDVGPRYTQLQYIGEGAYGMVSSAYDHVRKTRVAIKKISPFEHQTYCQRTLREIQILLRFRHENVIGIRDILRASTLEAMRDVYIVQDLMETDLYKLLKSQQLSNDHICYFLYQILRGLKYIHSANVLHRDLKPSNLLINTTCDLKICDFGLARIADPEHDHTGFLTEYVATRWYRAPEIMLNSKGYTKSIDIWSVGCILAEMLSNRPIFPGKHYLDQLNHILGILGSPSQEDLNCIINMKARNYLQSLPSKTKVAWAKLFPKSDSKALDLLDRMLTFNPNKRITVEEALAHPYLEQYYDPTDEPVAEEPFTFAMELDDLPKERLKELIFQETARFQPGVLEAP

[6] = target: panel of more than 300 wild-type and mutant kinases (313 kinase panel) (Homo sapiens, UniProt P05129); conditions: kinase PKCγ; 1 μM
[7] = target: panel of more than 300 wild-type and mutant kinases (313 kinase panel) (Homo sapiens, UniProt Q8TDX7)
[8] = target: T3, panel of more than 300 wild-type and mutant kinases (313 kinase panel) (Homo sapiens, UniProt Q16566)
T3 sequence (Q16566 1-473): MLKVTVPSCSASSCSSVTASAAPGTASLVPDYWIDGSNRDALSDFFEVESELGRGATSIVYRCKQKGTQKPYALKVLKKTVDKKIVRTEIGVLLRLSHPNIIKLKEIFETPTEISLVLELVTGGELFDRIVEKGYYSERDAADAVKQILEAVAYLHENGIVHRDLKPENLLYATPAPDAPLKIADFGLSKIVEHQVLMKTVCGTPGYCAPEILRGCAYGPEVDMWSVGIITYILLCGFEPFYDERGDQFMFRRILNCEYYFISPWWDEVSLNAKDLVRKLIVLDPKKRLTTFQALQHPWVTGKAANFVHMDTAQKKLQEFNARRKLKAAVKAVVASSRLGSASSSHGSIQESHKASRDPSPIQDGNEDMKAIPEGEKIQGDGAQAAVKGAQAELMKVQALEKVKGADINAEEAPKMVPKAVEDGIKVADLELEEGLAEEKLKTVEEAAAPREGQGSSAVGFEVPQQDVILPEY

[9] = target: panel of more than 300 wild-type and mutant kinases (313 kinase panel) (Homo sapiens, UniProt Q13555)
[10] = target: panel of more than 300 wild-type and mutant kinases (313 kinase panel) (Homo sapiens, UniProt Q07912)
panel of more than 300 wild-type and mutant kinases (313 kinase panel) (Homo sapiens, UniProt Q07912), sequence (Q07912 whole entry, change not shown): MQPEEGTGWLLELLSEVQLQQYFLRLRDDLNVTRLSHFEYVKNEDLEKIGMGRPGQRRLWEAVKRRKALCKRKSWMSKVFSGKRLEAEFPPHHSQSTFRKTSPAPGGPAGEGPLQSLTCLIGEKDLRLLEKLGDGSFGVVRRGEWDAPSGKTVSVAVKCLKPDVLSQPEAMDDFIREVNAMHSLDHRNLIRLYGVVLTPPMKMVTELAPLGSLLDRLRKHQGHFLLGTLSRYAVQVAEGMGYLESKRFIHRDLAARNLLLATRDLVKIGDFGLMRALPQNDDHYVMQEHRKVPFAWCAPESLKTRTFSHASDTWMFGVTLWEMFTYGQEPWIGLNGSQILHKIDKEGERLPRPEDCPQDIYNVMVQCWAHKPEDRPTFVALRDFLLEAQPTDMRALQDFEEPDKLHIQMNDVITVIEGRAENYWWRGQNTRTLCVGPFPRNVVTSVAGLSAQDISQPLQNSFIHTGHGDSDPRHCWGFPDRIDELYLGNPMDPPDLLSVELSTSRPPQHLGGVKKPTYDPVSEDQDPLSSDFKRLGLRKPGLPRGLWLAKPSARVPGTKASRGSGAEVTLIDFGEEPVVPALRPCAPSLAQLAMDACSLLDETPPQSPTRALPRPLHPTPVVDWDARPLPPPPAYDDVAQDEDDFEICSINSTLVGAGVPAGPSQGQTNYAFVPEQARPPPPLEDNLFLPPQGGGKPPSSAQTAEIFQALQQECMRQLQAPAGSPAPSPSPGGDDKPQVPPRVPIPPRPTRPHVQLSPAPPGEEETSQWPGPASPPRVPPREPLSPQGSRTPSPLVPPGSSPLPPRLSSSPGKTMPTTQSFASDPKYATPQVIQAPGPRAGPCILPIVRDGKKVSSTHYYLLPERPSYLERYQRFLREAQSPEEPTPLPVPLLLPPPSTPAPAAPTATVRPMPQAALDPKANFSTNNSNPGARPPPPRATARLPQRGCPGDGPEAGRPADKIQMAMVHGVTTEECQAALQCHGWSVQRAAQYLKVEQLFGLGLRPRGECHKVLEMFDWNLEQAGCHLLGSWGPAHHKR

| SMILES | %-inhibition of ROCK1 ([1]; 1 µM) [%] | %-inhibition of EPHB1 ([2]; 1 µM) [%] | %-inhibition of MAP2K5 [3] [%] | %-inhibition of SYK ([4]; 1 µM) [%] | %-inhibition of Erk1 [5] [%] | %-inhibition of PKCγ [6] [%] | %-inhibition of NEK7 ([7]; kinase NEK7, 1 μM) [%] | %-inhibition, CaMK4 ([8]; kinase CaMK4, 1 μM compound) [%] | %-inhibition, CaMK2γ ([9]; kinase CaMK2γ, 1 μM compound) [%] | %-inhibition, ACK ([10]; kinase ACK, 1 μM compound) [%] | %-inhibition of ROCK1 ([1]; kinase ROCK1, 1 μM) [%] | %-inhibition of EPHB1 ([2]; kinase EPHB1, compound at 1 μM) [%] | %-inhibition of SYK ([4]; kinase SYK, 1 μM) [%] | %-inhibition of NEK7 ([7]; 1 µM) [%] | %-inhibition, CaMK4 ([8]; 1 µM) [%] | %-inhibition, CaMK2γ ([9]; 1 µM) [%] | %-inhibition, ACK ([10]; 1 µM) [%] |
| --- | --- | --- | --- | --- | --- | --- | --- | --- | --- | --- | --- | --- | --- | --- | --- | --- | --- |
| N#CC[C@H](C1CCCC1)n1cc(-c2ncnc3[nH]ccc23)cn1 [ruxolitinib] | 66 | 31 | 7 | 20 | -2.29 | 6 | -1.81 | -2.58 | 56 | 93 |  |  |  |  |  |  |  |
| CC(=O)Nc1cccc(-n2c(=O)n(C3CC3)c(=O)c3c(Nc4ccc(I)cc4F)n(C)c(=O)c(C)c32)c1 [trametinib] |  |  | 13 |  | -1.14 | 0.381 | 1.63 | -5.45 | 7 | -5.39 | 3.21 | -8 | -5 |  |  |  |  |
| COc1cc2c(Nc3ccc(Br)cc3F)ncnc2cc1OCC1CCN(C)CC1 [vandetanib] |  |  | 43 |  | -1.55 | -5 | -6 | -3 | -13 | 24 | -0.226 | 96 | 27 |  |  |  |  |
| CS(=O)(=O)CCNCc1ccc(-c2ccc3ncnc(Nc4ccc(OCc5cccc(F)c5)c(Cl)c4)c3c2)o1 [lapatinib] |  | -0.743 | 1.63 |  | -4 | -0.202 |  |  |  |  | -2.62 |  | 0 | -0.744 | -4.44 | 1.73 | 2.36 |
| CCN(CC)CCNC(=O)c1c(C)[nH]c(/C=C2\C(=O)Nc3ccc(F)cc32)c1C [sunitinib] |  |  |  |  |  | 17 |  | 26 |  |  | 9 |  |  |  |  |  |  |
| C[C@@H](Oc1cc(-c2cnn(C3CCNCC3)c2)cnc1N)c1c(Cl)ccc(F)c1Cl [crizotinib] |  |  | 24 |  | -2 | -0.662 | -5.3 |  | -10 |  | 3.39 | 93 |  |  |  |  |  |
| CN(C)C/C=C/C(=O)Nc1cc2c(Nc3ccc(F)c(Cl)c3)ncnc2cc1O[C@H]1CCOC1 [afatinib] |  |  |  |  |  | 3 |  |  |  |  |  |  |  |  |  |  |  |
